Here are results for one compound from patent publication US20190247333A1, “METHOD OF REDUCTION IN […] […]” (ZOGENIX INTERNATIONAL LIMITED, priority 2017, published 2019).

Series [1] has as its system patients with Dravet syndrome. The series is described as follows: Open-label extension (OLE) study (Study 1503). It is filed as in vivo, human. The following applies: for median decrease in MCSF over the entire observation period compared to baseline: OLE interim analysis. As to the method: Table 7 presents additional analysis of seizure free intervals in the two placebo-controlled studies prior to the OLE. Inclusion criteria in both studies were for patients aged ≥2 years. Subgroup analysis was performed on patients between ≥2 to <6 years and on patients ≥6 years.
Patients (2-18 years old) entered a long-term, OLE study (Study 1503) after completing either Study 1 or Study 1504: Study 1 (14 wk; FFA: 0, 0.2, or 0.8 mg/kg/d; max, 30 mg/d in stiripentol [STP]-free AED regimens) or Study 1504 (15 wk; FFA: 0.5 mg/kg/d; max, 20 mg/d in AED+STP regimens). In 1503, all patients received 0.2 mg/kg/d FFA for 1 month; dosing was titrated to therapeutic effect thereafter.
A total of 42 of 158 (26.6%) patients who enrolled in the OLE were <6 years old at time of entry into the OLE study. The median baseline monthly convulsive seizure frequency (MCSF) prior to double-blind treatment was 10.7 seizures/month (range, 4.0 to 147.3). At the time of the OLE interim analysis, the median decrease in MCSF over the entire observation period compared to baseline was −76% (P<0.001) compared with −64% in the overall study population during the same time period.

Series [2] relates to patients with Dravet syndrome. The series is described as follows: Study 1: Phase 3 randomized, double-blind, placebo-controlled study of ZX008 as adjunctive therapy (ZX008-1501/1502). It is filed as in vivo, human. The following applies: for mean (SD) number of non-convulsive seizures (all types) per 28 days: Baseline; for reduction from Baseline in non-convulsive seizure frequency: T+M Period; for mean (SD) non-convulsive seizure frequency per 28 days: end of T+M Period. As to the method: The first 119 subjects to be randomized in both identical studies combined were analyzed and reported as Study 1 (FIG. 1), covered by a Statistical Analysis Plan (SAP).
Primary and key secondary endpoints in the Study 1 SAP were pre-determined. All patients were treated twice per day over a period of 14 weeks using an oral syringe to administer the formulation. The treatment period included a two-week titration period and a 12-week maintenance period.
The initial results of Study 1 are outlined below. The randomized, double blind, placebo controlled, Phase 3 study enrolled 119 patients across sites in the United States, Canada, Europe and Australia. The median age of patients was 8 years, the mean age of patients was 9 years (range, 2-18 years) (FIG. 2).
Patients were titrated to their target dose over two weeks, and then remained at that fixed dose for 12 weeks. The mean baseline convulsive seizure frequency across the study groups was approximately 40 seizures per month. 110 (92%) patients completed the study (85% 0.8 mg/kg/day; 100% 0.2 mg/kg/day; 93% placebo).
The proportion of patients who achieved ≥75% seizure reductions, a secondary (non-key) efficacy measure, is also presented.
The mean number of convulsive seizure free days, defined as a day for which diary data are available and no convulsive seizures have been reported, was determined for each treatment group during the Baseline and T+M Periods. Using a parametric analysis, comparisons for the ZX008 groups to placebo were estimated from an ANCOVA model with treatment group (3 levels) and age group (<6 years, ≥6 years) as factors, log baseline number of convulsive seizure free days as a covariate and log convulsive seizure free days (Titration+Maintenance, or Maintenance Period) as response. The mean (SD) number of convulsive seizure free days per 28 days during the Baseline Period was 12.6 (7.68), 15.7 (6.80), and 14.6 (7.59) for the placebo, 0.2 and 0.8 mg/kg/day groups, respectively. […] The mean (SD) number of convulsive seizure free days for the 0.2 mg/kg/day group was 17.9 (8.04) days, which was numerically greater than placebo, but was not statistically significant (p=0.514). Similar results were obtained with a nonparametric analysis where the difference between the 0.8 mg/kg/day and placebo groups was statistically significant (p<0.001) while the difference between the 0.2 mg/kg/day and placebo groups was not (p=0.102).

The test system of series [3] is patients with Dravet syndrome. To be noted: cited from earlier work.
Setting [4] is: long-term fenfluramine treatment.

In the case of `CCNC(C)Cc1cccc(C(F)(F)F)c1` (racemic) [fenfluramine, 3-trifluoromethyl-N-ethylamphetamine], in series [1] (Dravet patients 6 years of age or less), the “reduction in MCSF” value is “sustained, clinically meaningful reduction in MCSF”. Further, the figures for the “median decrease in MCSF over the entire observation period compared to baseline” value in series [1] (overall study population) and in series [1] (patients <6 years old at entry) were −64% and −76%, respectively. The “most frequently reported AE's” value in series [1] (OLE, patients <6 years old) is “pyrexia, nasopharyngitis, upper respiratory tract infections, and diarrhea”. Further, the “mean (SD) number of non-convulsive seizures (all types) per 28 days” value in series [2] (0.2 mg/kg/day group) was 193.6 (478.45) per 28 days; in series [2] (0.8 mg/kg/day group), 335.2 (758.58) per 28 days. The “reduction from Baseline in non-convulsive seizure frequency” value in series [2] (0.2 mg/kg/day) is recorded as 9.7%; in series [2] (0.8 mg/kg/day) it was 59.1%. Besides, the “mean (SD) non-convulsive seizure frequency per 28 days” value in series [2] (0.2 mg/kg/day) was 93.7 (219.69) per 28 days; in series [2] (0.8 mg/kg/day) it was 127.9 (297.39) per 28 days. Moreover, the “Seizure-free Patients” value in series [3] (fenfluramine and valproate, average 0.34 mg/kg/day for between 1 and 22 years) is reported as 66.6%. Moreover, the “heart valve defects by echocardiography” value in series [3] (setting [4]) is listed as “No clinically relevant defects were identified”. For the same compound, in series [3] (setting [4]), the reduction in seizures is 75%. Also, the “incidence of all types of seizures” value in series [3] (not only photosensitive or self-induced seizures) is “effectively reduced the incidence of all types of seizures”.
